# Laboratory results reported in paper PMC5218480 (PLoS ONE, 2017).
# Tested on: MV-4-11 cells
# Test: Gene expression microarray analysis (Affymetrix PrimeView) and GSEA
# Format: cell-based, human
# Parameters: RFU PODN (11730768_x_at) / Fold change /veh PODN (11730768_x_at) / RFU LINC00158 (11744669_a_at) / Fold change /veh LINC00158 (11744669_a_at) / RFU DUSP10 (11751237_a_at) / Fold change /veh DUSP10 (11751237_a_at) / RFU ID3 (11757404_x_at) / Fold change /veh ID3 (11757404_x_at) / RFU PLEKHG5 (11737974_s_at) / Fold change /veh PLEKHG5 (11737974_s_at) / RFU LRRC4B (11730491_at) / Fold change /veh LRRC4B (11730491_at) / RFU GIMAP4 (11747438_a_at) / Fold change /veh GIMAP4 (11747438_a_at) / RFU KRT8 (11758183_x_at) / Fold change /veh KRT8 (11758183_x_at) / RFU CNN1 (11734310_a_at) / Fold change /veh CNN1 (11734310_a_at) / RFU VPS37D (11726825_at) / Fold change /veh VPS37D (11726825_at) / RFU C10orf10 (11716522_x_at) / Fold change /veh C10orf10 (11716522_x_at) / RFU KIR2DL2 /// KIR2DL4 /// KIR2DL5A /// KIR2DL5B /// KIR2DS1 /// KIR2DS2 /// KIR2DS3 /// KIR2DS4 /// KIR3DL3 /// KIR3DL3 /// KIR3DS1 (11738374_at) / Fold change /veh KIR2DL2 /// KIR2DL4 /// KIR2DL5A /// KIR2DL5B /// KIR2DS1 /// KIR2DS2 /// KIR2DS3 /// KIR2DS4 /// KIR3DL3 /// KIR3DL3 /// KIR3DS1 (11738374_at) / RFU C1QL1 (11718748_at) / Fold change /veh C1QL1 (11718748_at) / RFU TMPRSS4 (11747572_a_at) / Fold change /veh TMPRSS4 (11747572_a_at) / RFU HAMP (11756126_x_at) / Fold change /veh HAMP (11756126_x_at) / RFU RNFT2 (11725882_a_at) / Fold change /veh RNFT2 (11725882_a_at) / RFU NR4A2 (11747474_a_at) / Fold change /veh NR4A2 (11747474_a_at) / RFU ABCC12 (11746883_a_at) / Fold change /veh ABCC12 (11746883_a_at) / RFU TMEM136 (11760407_x_at) / Fold change /veh TMEM136 (11760407_x_at) / RFU CLDN22 /// WWC2 (11732394_at) / Fold change /veh CLDN22 /// WWC2 (11732394_at) / RFU HLA-DPB1 (11760878_x_at) / Fold change /veh HLA-DPB1 (11760878_x_at) / RFU SPINT1 (11716480_a_at) / Fold change /veh SPINT1 (11716480_a_at) / RFU GAP43 (11754022_s_at) / Fold change /veh GAP43 (11754022_s_at) / RFU A4GNT (11735810_at) / Fold change /veh A4GNT (11735810_at) / RFU PRB3 (11715151_x_at) / Fold change /veh PRB3 (11715151_x_at) / RFU TUBB4B (11761932_at) / Fold change /veh TUBB4B (11761932_at) / RFU CAPN14 (11732068_a_at) / Fold change /veh CAPN14 (11732068_a_at) / RFU TMCC2 (11721928_a_at) / Fold change /veh TMCC2 (11721928_a_at) / RFU IRGQ (11745062_a_at) / Fold change /veh IRGQ (11745062_a_at) / RFU FAM174B (11720279_a_at) / Fold change /veh FAM174B (11720279_a_at) / RFU TMPRSS4 (11748680_a_at) / Fold change /veh TMPRSS4 (11748680_a_at) / RFU FAM212B (11763350_a_at) / Fold change /veh FAM212B (11763350_a_at) / RFU PLEKHG5 (11743358_a_at) / Fold change /veh PLEKHG5 (11743358_a_at) / RFU ZSCAN30 (11745921_a_at) / Fold change /veh ZSCAN30 (11745921_a_at) / RFU CMKLR1 (11741424_a_at) / Fold change /veh CMKLR1 (11741424_a_at) / RFU LOC101060620 /// MAPK8IP1 (11723275_at) / Fold change /veh LOC101060620 /// MAPK8IP1 (11723275_at) / RFU SPTSSB (11747773_x_at) / Fold change /veh SPTSSB (11747773_x_at) / RFU PRSS12 (11739890_at) / Fold change /veh PRSS12 (11739890_at) / RFU BIN1 (11741810_x_at) / Fold change /veh BIN1 (11741810_x_at) / RFU WNT11 (11732464_a_at) / Fold change /veh WNT11 (11732464_a_at) / RFU C10orf10 (11716521_a_at) / Fold change /veh C10orf10 (11716521_a_at) / RFU C5orf56 (11738089_at) / Fold change /veh C5orf56 (11738089_at) / RFU CYB561 (11721691_x_at) / Fold change /veh CYB561 (11721691_x_at) / RFU ANKRD19P (11752326_a_at) / Fold change /veh ANKRD19P (11752326_a_at) / RFU OR2T12 /// OR2T33 /// OR2T8 (11738714_s_at) / Fold change /veh OR2T12 /// OR2T33 /// OR2T8 (11738714_s_at) / RFU VCAN (11748164_a_at) / Fold change /veh VCAN (11748164_a_at) / RFU JSRP1 (11732532_at) / Fold change /veh JSRP1 (11732532_at) / RFU KRTAP10-11 (11738290_x_at) / Fold change /veh KRTAP10-11 (11738290_x_at) / RFU MYO3A (11730013_a_at) / Fold change /veh MYO3A (11730013_a_at) / RFU EBF3 (11725865_a_at) / Fold change /veh EBF3 (11725865_a_at) / RFU CAMK2N1 (11719241_x_at) / Fold change /veh CAMK2N1 (11719241_x_at) / RFU C5orf56 (11738088_a_at) / Fold change /veh C5orf56 (11738088_a_at) / RFU OLFML3 (11715873_a_at) / Fold change /veh OLFML3 (11715873_a_at) / RFU LOC100653217 /// NTM (11731650_a_at) / Fold change /veh LOC100653217 /// NTM (11731650_a_at) / RFU MAPK11 (11762145_a_at) / Fold change /veh MAPK11 (11762145_a_at) / RFU FIZ1 (11724087_x_at) / Fold change /veh FIZ1 (11724087_x_at) / RFU OASL (11726364_x_at) / Fold change /veh OASL (11726364_x_at) / RFU SOX15 (11748057_x_at) / Fold change /veh SOX15 (11748057_x_at) / RFU CD79A (11719716_a_at) / Fold change /veh CD79A (11719716_a_at) / RFU HIST1H1D (11736915_at) / Fold change /veh HIST1H1D (11736915_at) / RFU CASKIN2 (11723855_a_at) / Fold change /veh CASKIN2 (11723855_a_at) / RFU LOC730098 (11760151_x_at) / Fold change /veh LOC730098 (11760151_x_at) / RFU OR4N2 (11742367_at) / Fold change /veh OR4N2 (11742367_at) / RFU PRRT2 (11749266_a_at) / Fold change /veh PRRT2 (11749266_a_at) / RFU SNX32 (11753110_a_at) / Fold change /veh SNX32 (11753110_a_at) / RFU CDHR5 (11726645_a_at) / Fold change /veh CDHR5 (11726645_a_at) / RFU RCAN1 (11760418_a_at) / Fold change /veh RCAN1 (11760418_a_at) / RFU FAM167A (11723789_a_at) / Fold change /veh FAM167A (11723789_a_at) / RFU FAM26E (11764081_at) / Fold change /veh FAM26E (11764081_at) / RFU ISYNA1 (11749810_s_at) / Fold change /veh ISYNA1 (11749810_s_at) / RFU ACY1 (11761880_at) / Fold change /veh ACY1 (11761880_at) / RFU 11764098_at / Fold change /veh 11764098_at / RFU SAMD14 (11745864_x_at) / Fold change /veh SAMD14 (11745864_x_at) / RFU NPB (11741838_a_at) / Fold change /veh NPB (11741838_a_at) / RFU TMPRSS6 (11731388_a_at) / Fold change /veh TMPRSS6 (11731388_a_at) / RFU KRTAP10-2 (11738614_at) / Fold change /veh KRTAP10-2 (11738614_at) / RFU ARHGAP8 /// PRR5-ARHGAP8 (11727945_x_at) / Fold change /veh ARHGAP8 /// PRR5-ARHGAP8 (11727945_x_at) / RFU KRTAP5-7 /// NADSYN1 (11734609_at) / Fold change /veh KRTAP5-7 /// NADSYN1 (11734609_at) / RFU RASL12 (11751679_a_at) / Fold change /veh RASL12 (11751679_a_at) / RFU CDKN2B (11736163_a_at) / Fold change /veh CDKN2B (11736163_a_at) / RFU PRF1 (11729649_at) / Fold change /veh PRF1 (11729649_at) / RFU, ZNF638 /// ZNF638-IT1 / Fold change vs veh, ZNF638 /// ZNF638-IT1 / RFU, PANK3 / Fold change vs veh, PANK3 / RFU, SH3YL1 / Fold change vs veh, SH3YL1 / RFU, ZEB2 / Fold change vs veh, ZEB2 / RFU, NRIP1 / Fold change vs veh, NRIP1 / RFU, PTTG1IP / Fold change vs veh, PTTG1IP / RFU, CAPN2 / Fold change vs veh, CAPN2 / RFU, MED14 / Fold change vs veh, MED14 / RFU, SNORA58 / Fold change vs veh, SNORA58 / RFU, C1orf63 / Fold change vs veh, C1orf63 / RFU, LRRFIP1 / Fold change vs veh, LRRFIP1 / RFU, NDUFAF7 / Fold change vs veh, NDUFAF7 / RFU, SLC12A2 / Fold change vs veh, SLC12A2 / RFU, IBTK / Fold change vs veh, IBTK / RFU, ESF1 / Fold change vs veh, ESF1 / Fold change vs veh, TMEM50B / RFU, TAOK1 / Fold change vs veh, TAOK1 / RFU, ACBD3 / Fold change vs veh, ACBD3 / RFU, TMA16 / Fold change vs veh, TMA16 / RFU, RWDD3 / Fold change vs veh, RWDD3 / RFU, BCAT1 / Fold change vs veh, BCAT1 / RFU, EDEM3 / Fold change vs veh, EDEM3 / RFU, TMEM33 / Fold change vs veh, TMEM33 / RFU, WDR75 / Fold change vs veh, WDR75 / RFU, AHCTF1 / Fold change vs veh, AHCTF1 / RFU, TFRC / Fold change vs veh, TFRC / RFU, ZDHHC17 / Fold change vs veh, ZDHHC17 / RFU, NOM1 / Fold change vs veh, NOM1 / RFU, ARL8B / Fold change vs veh, ARL8B / RFU, ZBTB11 / Fold change vs veh, ZBTB11 / RFU, TAMM41 / Fold change vs veh, TAMM41 / RFU, KIAA1704 /// LOC100996395 / Fold change vs veh, KIAA1704 /// LOC100996395 / RFU, ING1 / Fold change vs veh, ING1 / RFU, TRMT61B / Fold change vs veh, TRMT61B / RFU, FUBP3 / Fold change vs veh, FUBP3 / RFU, TP53 / Fold change vs veh, TP53 / RFU, TNKS2 / Fold change vs veh, TNKS2 / RFU, ZFP14 / Fold change vs veh, ZFP14 / RFU, ACTR2 / Fold change vs veh, ACTR2 / RFU, PPP3R1 / Fold change vs veh, PPP3R1 / RFU, PIK3R1 / Fold change vs veh, PIK3R1 / RFU, HNRNPA1 / Fold change vs veh, HNRNPA1 / RFU, RNF170 / Fold change vs veh, RNF170 / RFU, ZNF28 / Fold change vs veh, ZNF28 / RFU, RNGTT / Fold change vs veh, RNGTT / RFU, OGT / Fold change vs veh, OGT / RFU, BRD1 / Fold change vs veh, BRD1 / RFU, MARS / Fold change vs veh, MARS / RFU, ZNF655 / Fold change vs veh, ZNF655 / RFU, FAHD1 / Fold change vs veh, FAHD1 / RFU, BDP1 / Fold change vs veh, BDP1 / RFU, LRRCC1 / Fold change vs veh, LRRCC1 / RFU, ARID1A / Fold change vs veh, ARID1A / RFU, ZNF146 / Fold change vs veh, ZNF146 / RFU, ZNF330 / Fold change vs veh, ZNF330 / RFU, GPN3 / Fold change vs veh, GPN3 / RFU, C9orf123 / Fold change vs veh, C9orf123 / RFU, N4BP2L2 / Fold change vs veh, N4BP2L2 / RFU, ARFIP1 / Fold change vs veh, ARFIP1 / RFU, FAM179B / Fold change vs veh, FAM179B / RFU, BCL10 / Fold change vs veh, BCL10 / RFU, UHRF1BP1L / Fold change vs veh, UHRF1BP1L / RFU, BET1 / Fold change vs veh, BET1 / RFU, CNOT2 / Fold change vs veh, CNOT2 / RFU, ZNF268 / Fold change vs veh, ZNF268 / Fold change vs veh, ZNF507 / RFU, DGCR2 / Fold change vs veh, DGCR2 / RFU, WDSUB1 / Fold change vs veh, WDSUB1 / Fold change vs veh, HSP90B1 /// MIR3652 / RFU, ADSS / Fold change vs veh, ADSS / RFU, GK / Fold change vs veh, GK / RFU, ZNF148 / Fold change vs veh, ZNF148 / RFU, TAF9 / Fold change vs veh, TAF9 / RFU, SLC1A5 / Fold change vs veh, SLC1A5 / RFU, SLMO2 / Fold change vs veh, SLMO2 / RFU, ABCC4 / Fold change vs veh, ABCC4 / RFU, LOC101060439 /// RAP1B / Fold change vs veh, LOC101060439 /// RAP1B / RFU, RFX7 / Fold change vs veh, RFX7 / RFU, GTPBP10 / Fold change vs veh, GTPBP10 / RFU, CNEP1R1 / Fold change vs veh, CNEP1R1 / RFU, BIVM-ERCC5 /// ERCC5 / Fold change vs veh, BIVM-ERCC5 /// ERCC5 / RFU, ILF3 / Fold change vs veh, ILF3 / RFU 11762660_at / Fold change /veh 11762660_at / RFU VCAN (11757783_s_at) / Fold change /veh VCAN (11757783_s_at) / RFU DDX43 (11728927_at) / Fold change /veh DDX43 (11728927_at) / RFU KRT8 (11758188_x_at) / Fold change /veh KRT8 (11758188_x_at) / RFU NKD1 (11759106_at) / Fold change /veh NKD1 (11759106_at) / RFU SRD5A1 (11742802_a_at) / Fold change /veh SRD5A1 (11742802_a_at) / RFU TPSAB1 /// TPSB2 (11721975_s_at) / Fold change /veh TPSAB1 /// TPSB2 (11721975_s_at) / RFU GSTM3 (11746129_a_at) / Fold change /veh GSTM3 (11746129_a_at) / RFU IL23R (11737362_x_at) / Fold change /veh IL23R (11737362_x_at) / RFU TMEM51 (11727254_a_at) / Fold change /veh TMEM51 (11727254_a_at) / RFU PIWIL2 (11732686_x_at) / Fold change /veh PIWIL2 (11732686_x_at) / RFU ORM1 (11744905_x_at) / Fold change /veh ORM1 (11744905_x_at) / RFU CCDC152 (11743942_at) / Fold change /veh CCDC152 (11743942_at) / RFU ECM1 (11717891_a_at) / Fold change /veh ECM1 (11717891_a_at) / RFU IL23R (11748794_a_at) / Fold change /veh IL23R (11748794_a_at) / RFU TNFAIP8L3 (11732012_x_at) / Fold change /veh TNFAIP8L3 (11732012_x_at) / RFU MBOAT4 (11741988_at) / Fold change /veh MBOAT4 (11741988_at) / RFU 11764193_at / Fold change /veh 11764193_at / RFU TMEM53 (11763286_at) / Fold change /veh TMEM53 (11763286_at) / RFU MAGEB2 (11727129_at) / Fold change /veh MAGEB2 (11727129_at) / RFU TMEM200A (11744735_a_at) / Fold change /veh TMEM200A (11744735_a_at) / RFU CCDC152 (11751479_a_at) / Fold change /veh CCDC152 (11751479_a_at) / RFU FAM211A (11726209_a_at) / Fold change /veh FAM211A (11726209_a_at) / RFU RGS16 (11746705_a_at) / Fold change /veh RGS16 (11746705_a_at) / RFU VCAN (11755009_s_at) / Fold change /veh VCAN (11755009_s_at) / RFU RHOB (11743442_s_at) / Fold change /veh RHOB (11743442_s_at) / RFU RGS16 (11720943_a_at) / Fold change /veh RGS16 (11720943_a_at) / RFU RGS16 (11720944_at) / Fold change /veh RGS16 (11720944_at) / RFU, VPS4B / Fold change vs veh, VPS4B / RFU, CREB1 / Fold change vs veh, CREB1 / RFU, DNAJC13 / Fold change vs veh, DNAJC13 / RFU, GNAQ / Fold change vs veh, GNAQ / RFU, CDK5R1 / Fold change vs veh, CDK5R1 / RFU, ZRANB3 / Fold change vs veh, ZRANB3 / RFU, CUL4A / Fold change vs veh, CUL4A / RFU, CCNY / Fold change vs veh, CCNY / RFU, UFL1 / Fold change vs veh, UFL1 / RFU, COG3 / Fold change vs veh, COG3 / RFU, DIAPH2 / Fold change vs veh, DIAPH2 / RFU, SKA2 / Fold change vs veh, SKA2 / RFU, AFF3 / Fold change vs veh, AFF3 / RFU, LMF1 / Fold change vs veh, LMF1 / RFU, IPO11 / Fold change vs veh, IPO11 / RFU, DFFB / Fold change vs veh, DFFB / RFU, FOXP1 / Fold change vs veh, FOXP1 / RFU, CARD8 / Fold change vs veh, CARD8 / RFU, STRN3 / Fold change vs veh, STRN3 / RFU, ADK / Fold change vs veh, ADK / RFU, RASSF2 / Fold change vs veh, RASSF2 / RFU, WIPF1 / Fold change vs veh, WIPF1 / RFU, LARP1B / Fold change vs veh, LARP1B / RFU, RASA1 / Fold change vs veh, RASA1 / RFU, RB1 / Fold change vs veh, RB1 / RFU, PPFIA1 / Fold change vs veh, PPFIA1 / RFU, MAT2A / Fold change vs veh, MAT2A / RFU, CCT5 / Fold change vs veh, CCT5 / RFU, WDR92 / Fold change vs veh, WDR92 / RFU, CUX1 / Fold change vs veh, CUX1 / RFU, TTC7A / Fold change vs veh, TTC7A / RFU, TMEM135 / Fold change vs veh, TMEM135 / RFU, DEPTOR / Fold change vs veh, DEPTOR / RFU, CPM / Fold change vs veh, CPM / RFU, DNAJB6 / Fold change vs veh, DNAJB6 / RFU, CACNA2D3 / Fold change vs veh, CACNA2D3 / RFU, DTX4 / Fold change vs veh, DTX4 / RFU, TFCP2 / Fold change vs veh, TFCP2 / RFU, GMCL1 /// GMCL1P1 / Fold change vs veh, GMCL1 /// GMCL1P1 / RFU, AEBP2 / Fold change vs veh, AEBP2 / RFU, SNHG1 /// SNORD22 /// SNORD25 /// SNORD26 /// SNORD27 /// SNORD28 /// SNORD29 /// SNORD31 / Fold change vs veh, SNHG1 /// SNORD22 /// SNORD25 /// SNORD26 /// SNORD27 /// SNORD28 /// SNORD29 /// SNORD31 / Fold change (Aza/veh), C12orf56 (ProbeSet 11735607_a_at) / Fold change (ACY-1035/veh), C12orf56 (ProbeSet 11735607_a_at) / Fold change (Aza/veh), FGFR1OP (ProbeSet 11751329_s_at) / Fold change (ACY-1035/veh), FGFR1OP (ProbeSet 11751329_s_at) / Fold change (Aza/veh), VPS36 (ProbeSet 11739960_a_at) / Fold change (ACY-1035/veh), VPS36 (ProbeSet 11739960_a_at) / RFU SYPL1 (11715823_x_at) / Fold change /veh SYPL1 (11715823_x_at) / RFU IGFBP7 (11715501_s_at) / Fold change /veh IGFBP7 (11715501_s_at) / RFU REEP3 (11722064_at) / Fold change /veh REEP3 (11722064_at) / RFU IGLL1 (11728026_x_at) / Fold change /veh IGLL1 (11728026_x_at): dose or concentration left out as unconfirmed
# Settings: MV-4-11 cells, 48 hours
smiles,measurement,value
Nc1ncn([C@@H]2O[C@H](CO)[C@@H](O)[C@H]2O)c(=O)n1 [azacitidine],Fold change /veh PIWIL2 (11732686_x_at),1.30
